Results on two compounds are retold here after paper PMC5983823, “Screening of Natural Product Derivatives Identifies Two Structurally Related Flavonoids as Potent Quorum Sensing Inhibitors against Gram-Negative Bacteria” (International Journal of Molecular Sciences, 2018).

For orientation: inhibition means the relative decrease from the control value, in per cent.

Where two headings read alike, the source gives them in different places.

In one assay the test system is cancer cell lines. Further details: method as in ref 56 = [56]; 56. National Center for Biotechnology Information PubChem BioAssay Database Available online: https://pubchem.ncbi.nlm.nih.gov/bioassay/924 (accessed on 28 March 2018). The note with it: PubChem Bioassay database ref 56; cited from earlier work.
The test system of assay [1] is C. violaceum ATCC 31532. Nature of the assay: Violacein extraction assay (QS-mediated violacein production). Particulars: Chromobacterium violaceum, ATCC31532, 24 h, read-out: Inhibition-% of violacein production. In kind it is cell-based, Chromobacterium violaceum. The method, then:
(§1) The initial screening of compound library was conducted using two strains of C. violaceum as model bacterium, and two assays (violacein extraction and resazurin staining) in parallel as recently optimized in [26]. For the screening assays, overnight cultures of C. violaceum were diluted in LB broth supplemented with yeast extract (LBY) (0.1% w/v, Sigma Aldrich, St. Louis, MO, USA). Culture of C. violaceum CV026 was further supplemented with 0.5 µM N-(β-ketocaproyl)-L-Homoserine lactone (3-O-C6-(L)-HSL, Cayman chemicals, Ann Arbor, MI, USA) to induce the violacein production. Bacteria (10^6 CFU/mL) was exposed to compounds (400 µM) in a total volume of 200 µL in 96-microtiter well plates (Nunc, Roskilde, Denmark), and incubated at 27 °C, with shaking at 200 rpm for 24 h. DMSO was added in untreated control wells and bacteria-free wells with only LBY were included controls. Additionally, autoinducer-free wells containing only bacteria were included in C. violaceum CV026 plates. Plates were prepared in duplicates. Quercetin dihydrate (Carl Roth GmbH, Karlsruhe, Germany) at 400 µM was used as positive control in violacein extraction assay, and azithromycin (Cayman chemicals, Ann Arbor, MI, USA) at 10 µM in viability assay. Both control compounds were prepared in DMSO. DMSO concentration was 2.5% throughout the experiments.
(§2) After incubation period of 24 h, plates were centrifuged (Allegra™ X-12R Benchtop centrifuge, Beckman Coulter Inc., Fullerton, CA, USA) at 3000 rpm for 10 min to precipitate the violacein. Supernatants were discarded from the wells by pipetting, and pellets were re-suspended in 200 μL of 96% ethanol by scraping and mixing followed by centrifugation (3000 rpm, 10 min). Thereafter, 100 μL of supernatants were transferred to sterile 96-microtiter well plates, and violacein was quantified by reading the optical density at 595 nm using Varioskan Flash. Inhibition of violacein production was expressed as inhibition percentages of the untreated biofilms (Equation (1)):Inhibition-% = [(untreated control OD595 − sample OD595)/(untreated control OD595 − media control OD595)] × 100%(1) in which untreated control = C. violaceum + DMSO, media control = LBY, and sample = C. violaceum treated with a compound. Later on, violacein extraction assay was also utilized for the determination of half inhibitory concentrations of the compounds.

Assay [2] relates to C. violaceum ATCC 31532. The description is as above. In kind it is cell-based. Particulars: Chromobacterium violaceum.
A further assay relates to C. violaceum CV026. Nature of the assay: Violacein extraction assay (QS-mediated violacein production), mutant strain with exogenous autoinducer. The note with it: Chromobacterium violaceum, CV026, 24 h, read-out: Inhibition-% of violacein production. The class given is cell-based, Chromobacterium violaceum. The procedure: as §1, §2
In assay [3] the test system is Staphylococcus aureus biofilms. Also on record: method as in PMID 24071942. Particulars: cited from earlier work.
A further assay concerns C. violaceum. Further details: method as in PMID 27626397. The note with it: cited from earlier work.

For `O=c1c(O)c(-c2cccnc2)oc2ccc(Cl)cc12` [Compound 575, 6-chloro-3-hydroxy-2-(3-pyridyl)chromen-4-one], the Anti-cancer activity entry in the assay on cancer cell lines is recorded as “not active”. Moreover, the inhibition at 400 µM with C. violaceum ATCC 31532 [1] (primary screening, 400 µM, 24 h, C. violaceum ATCC 31532) is 94.1%; with C. violaceum CV026 it was 94.3%. Further, in the assay on C. violaceum ATCC 31532 [2] (ATCC31532, 40 µM, C. violaceum ATCC 31532, mean ± SD of three independent tests, read-out: Inhibition-% of violacein production), the inhibition at 40 µM was determined as 60.9 ± 4.1%.

For the compound `O=c1cc(-c2ccccc2)oc2cc(O)c(O)cc12` [Compound 916, 6,7-dihydroxy-2-phenylchromen-4-one], the Anti-cancer activity entry with cancer cell lines is on record as “inhibition of cancer cell lines”. In addition, the inhibition at 400 µM stood at 102% in the assay on C. violaceum ATCC 31532 [1] and 95.7% with C. violaceum CV026. For the same compound, the inhibition at 40 µM in the assay with C. violaceum ATCC 31532 [2] (ATCC31532, read-out: Inhibition-% of violacein production) was determined as 35.8 ± 1.1%. In assay [3], the “Anti-biofilm activity against S. aureus” value is “preventing biofilm formation and by eradicating pre-formed biofilms”. Moreover, in the assay with C. violaceum, the “Anti-QS activity class in earlier screening” value was “moderately active”.
